Measurements taken from BigSolDB 2.1.

CC(N)=S
Settings	solubility (mole fraction)
in 2-butanone, 272.85 K	0.137
in 2-butanone, 279.35 K	0.157
in 2-butanone, 282.55 K	0.167
in 2-butanone, 287.95 K	0.185
in 2-butanone, 293.35 K	0.205
in 2-butanone, 297.85 K	0.223
in 2-butanone, 303.05 K	0.244
in 2-butanone, 308.55 K	0.268
in 2-butanone, 313.15 K	0.289
in 2-butanone, 318.05 K	0.312
in 2-butanone, 323.95 K	0.343
in 2-pentanone, 272.85 K	0.111
in 2-pentanone, 279.35 K	0.127
in 2-pentanone, 282.55 K	0.136
in 2-pentanone, 287.95 K	0.152
in 2-pentanone, 293.35 K	0.169
in 2-pentanone, 297.85 K	0.183
in 2-pentanone, 303.05 K	0.202
in 2-pentanone, 308.55 K	0.222
in 2-pentanone, 313.15 K	0.24
in 2-pentanone, 318.05 K	0.26
in 2-pentanone, 323.95 K	0.286
in acetone, 272.85 K	0.144
in acetone, 279.35 K	0.165
in acetone, 282.55 K	0.176
in acetone, 287.95 K	0.195
in acetone, 293.35 K	0.216
in acetone, 297.85 K	0.234
in acetone, 303.05 K	0.257
in acetone, 308.55 K	0.282
in acetone, 313.15 K	0.304
in acetone, 318.05 K	0.329
in acetone, 323.95 K	0.36
in acetonitrile, 272.85 K	0.0478
in acetonitrile, 279.35 K	0.061
in acetonitrile, 282.55 K	0.0685
in acetonitrile, 287.95 K	0.0828
in acetonitrile, 293.35 K	0.0993
in acetonitrile, 297.85 K	0.115
in acetonitrile, 303.05 K	0.136
in acetonitrile, 308.55 K	0.16
in acetonitrile, 313.15 K	0.184
in acetonitrile, 318.05 K	0.211
in acetonitrile, 323.95 K	0.249
in ethanol, 273.15 K	0.064
in ethanol, 277.95 K	0.0752
in ethanol, 283.45 K	0.0901
in ethanol, 288.25 K	0.105
in ethanol, 293.25 K	0.122
in ethanol, 298.15 K	0.141
in ethanol, 302.35 K	0.159
in ethanol, 308.05 K	0.186
in ethanol, 313.35 K	0.214
in ethanol, 318.25 K	0.243
in ethanol, 323.15 K	0.274
in ethyl acetate, 272.85 K	0.0646
in ethyl acetate, 279.35 K	0.0773
in ethyl acetate, 282.55 K	0.0843
in ethyl acetate, 287.95 K	0.0969
in ethyl acetate, 293.35 K	0.111
in ethyl acetate, 297.85 K	0.124
in ethyl acetate, 303.05 K	0.14
in ethyl acetate, 308.55 K	0.158
in ethyl acetate, 313.15 K	0.175
in ethyl acetate, 318.05 K	0.194
in ethyl acetate, 323.95 K	0.219
in ethyl formate, 272.85 K	0.0427
in ethyl formate, 279.35 K	0.0536
in ethyl formate, 282.55 K	0.0596
in ethyl formate, 287.95 K	0.0711
in ethyl formate, 293.35 K	0.0843
in ethyl formate, 297.85 K	0.0965
in ethyl formate, 303.05 K	0.113
in ethyl formate, 308.55 K	0.131
in ethyl formate, 313.15 K	0.149
in ethyl formate, 318.05 K	0.17
in ethyl formate, 323.95 K	0.198
in isobutanol, 273.15 K	0.0323
in isobutanol, 277.95 K	0.0401
in isobutanol, 283.45 K	0.0508
in isobutanol, 288.25 K	0.0621
in isobutanol, 293.25 K	0.0761
in isobutanol, 298.15 K	0.0922
in isobutanol, 302.35 K	0.108
in isobutanol, 308.05 K	0.133
in isobutanol, 313.35 K	0.16
in isobutanol, 318.25 K	0.189
in isobutanol, 323.15 K	0.223
in isopentanol, 273.15 K	0.0333
in isopentanol, 277.95 K	0.0415
in isopentanol, 283.45 K	0.0528
in isopentanol, 288.25 K	0.0648
in isopentanol, 293.25 K	0.0796
in isopentanol, 298.15 K	0.0968
in isopentanol, 302.35 K	0.114
in isopentanol, 308.05 K	0.141
in isopentanol, 313.35 K	0.171
in isopentanol, 318.25 K	0.203
in isopentanol, 323.15 K	0.239
in isopropanol, 273.15 K	0.0439
in isopropanol, 277.95 K	0.0532
in isopropanol, 283.45 K	0.066
in isopropanol, 288.25 K	0.0792
in isopropanol, 293.25 K	0.0949
in isopropanol, 298.15 K	0.113
in isopropanol, 302.35 K	0.13
in isopropanol, 308.05 K	0.158
in isopropanol, 313.35 K	0.186
in isopropanol, 318.25 K	0.216
in isopropanol, 323.15 K	0.251
in methanol, 273.15 K	0.0894
in methanol, 277.95 K	0.104
in methanol, 283.45 K	0.123
in methanol, 288.25 K	0.141
in methanol, 293.25 K	0.163
in methanol, 298.15 K	0.186
in methanol, 302.35 K	0.208
in methanol, 308.05 K	0.241
in methanol, 313.35 K	0.275
in methanol, 318.25 K	0.31
in methanol, 323.15 K	0.348
in methyl acetate, 272.85 K	0.0603
in methyl acetate, 279.35 K	0.074
in methyl acetate, 282.55 K	0.0815
in methyl acetate, 287.95 K	0.0957
in methyl acetate, 293.35 K	0.112
in methyl acetate, 297.85 K	0.126
in methyl acetate, 303.05 K	0.145
in methyl acetate, 308.55 K	0.167
in methyl acetate, 313.15 K	0.187
in methyl acetate, 318.05 K	0.211
in methyl acetate, 323.95 K	0.242
in n-butanol, 273.15 K	0.0417
in n-butanol, 277.95 K	0.0524
in n-butanol, 283.45 K	0.0674
in n-butanol, 288.25 K	0.0833
in n-butanol, 293.25 K	0.103
in n-butanol, 298.15 K	0.126
in n-butanol, 302.35 K	0.149
in n-butanol, 308.05 K	0.186
in n-butanol, 313.35 K	0.227
in n-butanol, 318.25 K	0.271
in n-butanol, 323.15 K	0.321
in n-pentanol, 273.15 K	0.0507
in n-pentanol, 277.95 K	0.0598
in n-pentanol, 283.45 K	0.0716
in n-pentanol, 288.25 K	0.0835
in n-pentanol, 293.25 K	0.0975
in n-pentanol, 298.15 K	0.113
in n-pentanol, 302.35 K	0.127
in n-pentanol, 308.05 K	0.149
in n-pentanol, 313.35 K	0.172
in n-pentanol, 318.25 K	0.196
in n-pentanol, 323.15 K	0.222
in n-propanol, 273.15 K	0.0503
in n-propanol, 277.95 K	0.0608
in n-propanol, 283.45 K	0.0748
in n-propanol, 288.25 K	0.0891
in n-propanol, 293.25 K	0.106
in n-propanol, 298.15 K	0.126
in n-propanol, 302.35 K	0.144
in n-propanol, 308.05 K	0.173
in n-propanol, 313.35 K	0.203
in n-propanol, 318.25 K	0.236
in n-propanol, 323.15 K	0.272
